The values that follow come from the NIST ThermoML archive (doi:10.1016/j.fluid.2014.08.002).

± gives the expanded uncertainty stated by the source.

For the series the following is noted: 298.15 K; 101.3 kPa; Liquid; Vibrating tube method.
As for `CC1(C)OCCO1` [2,2-dimethyl-1,3-dioxolane], the mass density amounted to 944.2 ± 0.3 kg/m3. Turning to `CCO` [ethanol], the mass density is recorded as 789.5 ± 0.2 kg/m3.

On to `CCCCCCC` [heptane], for which the mass density is given as 683.8 ± 0.3 kg/m3. On to `Cc1ccccc1` [toluene], for which the mass density is listed as 866.9 ± 0.2 kg/m3.
